From PMC13091788 (NPJ Aging, 2026)
Read-outs that look alike come from different tables or passages of the source.

How the values were obtained:
PAMPA assay = type: in vitro ADME; settings: 37 °C, 4 h
Procedure: To determine the passive membrane diffusion rates, Corning Gentest Pre-coated PAMPA Plate System was used. The acceptor plate was prepared by adding 200 μL of 0.1 M phosphate buffer (pH 4.5–8.6) supplemented with 5% DMSO to each well, and then 300 μL of 30 μM compounds in 0.1 M phosphate buffer (pH 4.5–8.6) with 5% DMSO were added to the donor wells. The acceptor plate was then placed on top of the donor plate and incubated at 37 °C for 4 h without agitation. After the incubation, the plates were separated and the solutions from each well of both the acceptor plate and the donor plate were transferred to 96-well plates and mixed with acetonitrile. The final concentrations of compounds in both donor and acceptor wells, as well as the concentrations of the initial donor solutions, were analyzed using liquid chromatography-tandem mass spectrometry (LC-MS/MS). The permeability of the compounds was calculated as described in a previous study. […] Two technical replicates were performed.

[1] = Unbound fraction in mouse plasma (equilibrium dialysis); type: in vitro ADME; settings: pH 7.4, equilibrium dialysis 6 h, 37 °C, read-out: Plasma protein binding (fraction unbound) mouse (pH7.4)
Procedure: (§1) An equilibrium dialysis apparatus was used to determine the unbound fraction for each compound in human or mouse plasma. High Throughput Dialysis Model HTD96b and Dialysis Membrane Strips MWCO 12–14 kDa (HTDialysis) were used. Plasma was spiked with the test compound (1 μM), and 150 μL aliquots were loaded into the apparatus and dialyzed versus 150 μL of 0.1 M phosphate buffer (pH 7.4) at 37 °C for 6 h by rotation at 80 rpm. The unbound fraction was calculated as the ratio of receiver side (buffer) to donor side (plasma) concentrations. Two technical replicates were performed.

[2] = Unbound fraction in human plasma (equilibrium dialysis); type: in vitro ADME; settings: pH 7.4, equilibrium dialysis 6 h, 37 °C, read-out: Plasma protein binding (fraction unbound) human (pH7.4)
Procedure: as §1

[3] = design: method as in PMID 24593257; settings: cited from earlier work
[4] = design: method as in PMID 24593257; settings: cited from earlier work; remark: listed apart in the source
C2C12 cells = assay: Mitochondrial membrane potential (JC-1); type: cell-based, mouse; settings: C2C12, Q-BRB or AcA-BRB 5 or 10 μM, 48 h
Procedure: Mitochondrial membrane potential was assessed using the JC-1 dye (JC-1, T3168, Thermo Fisher Scientific). Cells cultured in 96-well plates were washed twice with PBS and incubated with 1 μM JC-1 for 30 min at 37 °C in the dark. After incubation, cells were washed with PBS, and fluorescence intensities at 590 nm (red) and 530 nm (green) were measured using a microplate reader. The 590/530 nm fluorescence ratio was calculated and used as an index of mitochondrial membrane potential.

[5] = system: 24-month-old male C57BL/6 N mice; assay: Age-related cardiac dysfunction in aged mice; type: in vivo, mouse
From the text: All experimental procedures were approved by the Ethics Review Committee for Animal Experimentation at Kumamoto University, Kumamoto, Japan (approval No. A 2024-083). Procedures followed the guidelines and recommendations outlined by the ILAR Guide for the Care and Use of Laboratory Animals (8th Edition, 2011). Prior to tissue collection, mice were euthanized under isoflurane anesthesia, followed by cervical dislocation to ensure rapid euthanasia, a procedure also employed during sacrifice for tissue harvesting. Euthanasia was performed when animals met the established criteria for humane endpoints, specifically a body weight loss exceeding 20% over a 3-day period or 25% over a 1-week period, in accordance with the Kumamoto University Ethics Review Committee for Animal Experimentation above. All animals fed a normal diet (CE-2, CLEA) were randomly assigned to two groups: tap water only and tap water supplemented with AcA-BRB (0.5 mg/mL). Mice were housed in an animal facility with lighting cycles automatically controlled (12 h light/12 h dark), maintained at a stable temperature of 22 ± 2 °C and a relative humidity of 40–80%. C57BL/6NJcl wild-type (WT) male mice aged 2, 20, and 24 months were used in this study. Mice were preconditioned by chest hair removal with a topical depilatory (FUJIFILM VisualSonics), anesthetized with 1.5–2.5% isoflurane administered via inhalation, and maintained in a supine position on a dedicated animal handling platform with limbs immobilized for electrocardiogram gating during imaging. Body temperature was kept constant by relaying signals from a rectal probe to a heating pad, while heart and respiratory rates were continuously monitored. Transthoracic echocardiography was performed using a high-frequency ultrasound system dedicated to small-animal imaging (VisualSonics Vevo 3100, FUJIFILM VisualSonics) using a MS 400 linear array transducer (18–38 MHz). M-mode recording was performed at the midventricular level in the short-axis view. All images were analyzed using dedicated software (Vevo LAB version 5.7.1). LV wall thickness and internal cavity diameters at diastole (LVID;d) and systole (LVID;s) were measured. Percent LV fractional shortening (%FS) and Left Ventricular Ejection Fraction (LVEF) was calculated from M-mode measurements. To analyze cardiac diastolic function, trans-mitral flow velocity patterns and early diastolic mitral annular velocity (e’) were measured in the four-chamber view to calculate the ratio of early trans-mitral flow velocity (E) to e’ (E/e’). All procedures were performed under double-blind conditions with regard to genotype or treatment. Total RNA was extracted using a RNeasy Mini Kit (Qiagen). DNase-treated RNA was reverse-transcribed using a PrimeScript RT reagent Kit (Takara Bio). Heart tissue was homogenized using a multi-beads shocker (Yasui Kikai). Real-time quantitative RT-PCR was performed using TB Green Premix Ex Taq II (Takara Bio), and a Thermal Cycler Dice Real-Time System (Takara Bio). Relative transcript abundance was normalized to 18S rRNA levels. Primer sets used for RT-PCR are listed in Supplementary Table 3.

[6] = donor/acceptor pH 6.4/7.4, 30 μM, read-out: Membrane permeability pH6.4/7.4
[7] = donor/acceptor pH 7.4/7.4, 30 μM, read-out: Membrane permeability pH7.4/7.4
[8] = AcA-BRB 0.5 mg/mL in drinking water, 24-month-old mice, vs control
[9] = AcA-BRB 0.5 mg/mL in drinking water, aged mice

| Papp at 4 h, 30 μM (PAMPA assay; donor/acceptor pH 8.6/8.6, 30 μM, read-out: Membrane permeability pH8.6/8.6) [×10⁻⁶ cm/s] | Compound | Papp at 4 h, 30 μM (PAMPA assay; donor/acceptor pH 4.5/4.5, 30 μM, read-out: Membrane permeability pH4.5/4.5) [×10⁻⁶ cm/s] | Papp at 4 h, 30 μM (PAMPA assay; [6]) [×10⁻⁶ cm/s] | Papp at 4 h, 30 μM (PAMPA assay; [7]) [×10⁻⁶ cm/s] | fraction unbound at 6 h, 1 μM [1] | fraction unbound at 6 h, 1 μM [2] | lipophilicity [3] | water solubility (literature) [4] | mitochondrial membrane potential (JC-1 590/530 nm) (C2C12 cells) | blood pressure and heart rate vs control mice ([5]; 24-month-old mice, 3 months of treatment with AcA-BRB) | age-related progression of left ventricular dilatation, systolic dysfunction and diastolic dysfunction (echocardiography) ([5]; AcA-BRB 0.5 mg/mL in drinking water, 24-month-old mice, after 12 weeks, vs control) | cardiac hypertrophy (HW/TL ratio, histology) and pulmonary congestion (LW/TL ratio) [5, 8] | upregulation of genes associated with heart failure and cardiac fibrosis (qRT-PCR, heart) [5, 8] | LC3A/B II/I ratio in heart tissues (western blot) [5, 9] | expression of genes associated with ROS-scavenging systems (heart) [5, 9] | expression of genes associated with mitochondrial biogenesis, dynamics and mitophagy (heart) [5, 9] | p62 levels in heart tissues (western blot) [5, 9] |
| --- | --- | --- | --- | --- | --- | --- | --- | --- | --- | --- | --- | --- | --- | --- | --- | --- | --- |
| – | COc1ccc2cc3[n+](cc2c1O)CCc1cc2c(cc1-3)OCO2 [AcA-BRB, berberrubine acetic acid adduct] | 0.22 | 1.87 | 1.8 | 0.203 | 0.374 | – | – | – | – | – | – | – | – | – | – | – |
| 2.6 | COc1ccc2cc3n(cc-2c1=O)CCc1cc2c(cc1-3)OCO2 [Q-BRB, quinoid-type berberrubine] | – | 1.63 | 2.9 | 0.162 | 0.359 | very high | water-insoluble | – | – | – | – | – | – | – | – | – |
| – | COc1ccc2cc3[n+](cc2c1O)CCc1cc2c(cc1-3)OCO2 [berberrubine] | – | – | – | – | – | – | – | remained unchanged | comparable | ameliorated | improved | blocked | increase | upregulated | significantly increased | decrease |
